The text below walks through data of EP0931836B1, “Vasopermeability enhancing peptide of human interleukin-2 and immunoconjugates thereof” (priority 1998, dated 2004).

Assay [1] deals with Raji tumor-bearing nude mice. Put plainly: In vivo vasopermeability / biodistribution study, Raji lymphoma model (Lym-1 immunoconjugates).
Protocol: The Raji lymphoma cell line was used to produce heterotransplants in 6-week-old female nude mice by the subcutaneous injection of a 0.2 ml inoculum consisting of 4 x 10^7 Raji cells and 4 x 10^6 human fetal fibroblast feeder cells in the left thigh. Three days prior to injection, the mice were irradiated with 400 rads using a cesium irradiator to ensure a high take rate of the implanted cells. The tumors were grown for 14-18 days until they grew to approximately 1 cm in diameter.
To test the relative effects of the immunoconjugates on the biodistribution and tumor uptake of Lym-1 or TNT-1 in tumor-bearing mice, separate groups of 4-5 mice were given intravenous injections of 30 µg of antibody alone or antibody conjugate. At 2.5 hr after injection, each group received 50 µCi of ^125I-labeled Lym-1 or TNT-1 F(ab')2 fragment as tracer.
All animals were sacrificed 72 hr later, by sodium pentobarbital overdose, for biodistribution analysis. Various organs, blood, and tumor were removed, weighed, and samples were counted in a gamma counter. For each mouse, data were expressed as tumor:organ ratio (cpm per gram tumor/cpm per gram organ) and percent injected dose/gram (%ID/g).
Each peptide and rhIL-2, as well as their respective immunoconjugates with MAb Lym-1, were assayed for their ability to induce tumor vascular permeability and enhanced antibody uptake in Raji tumor-bearing nude mice.
Assay [2] concerns the target nucleohistones expressed in the nucleus of mammalian cells. Put plainly: paraformaldehyde-acetone-treated cell assay, 125I-labeled F(ab')2.
In assay [3] the target is variant of the HLA-Dr antigen expressed on the cell surface of human B-lymphocytes and malignant lymphomas (on Raji Burkitt's lymphoma cells) (human). Kind of assay: live cell radioimmunoassay on Raji cells, 125I-labeled F(ab')2.

As for “3C: synthetic peptide fragment of IL-2, amino acid sequence 22-58 (SEQ ID NO: 1), permeability enhancing peptide (QMILNGINNYKNPKLTRMLTFKFYMPKKATELKHLQC) [Fragment 3C]”, in assay [1] (named peptide tested as vasoconjugate (joined to delivery vehicle, Lym-1), relative to IL-2 immunoconjugate), the “vasopermeability effects of Lym-1/IL-2 chemical conjugate” value is “approximately 100%”. Moreover, the “Vasopermeability (%Lym-1/IL-2)” value in assay [1] (tumor vascular permeability and enhanced antibody uptake in Raji tumor-bearing nude mice, relative to Lym-1/IL-2, 30-40 pM of peptide per assay) turned out to be 0 %Lym-1/IL-2. In the case of “125I-labeled F(ab')2 fragment of murine monoclonal antibody TNT-1 (IgG2a)”, the immunoreactivity in assay [2] is > 80%.

B1: 125I-labeled F(ab')2 fragment of murine monoclonal antibody Lym-1 (IgG2a) (antibody, from another filing, V domains shown)
VH: QLKESGPGLVAPSQSLSITCTISGFSLTSYGVHWVRQPPGKGLEWLVVIWSDGSTTYNSALKSRLSISKDNSKSQVFLKMNSLQTDDTAIYYCASHYGSTLAFASWGHGTLVTVSA
VL: DIQMTQSPASLSASVGETVTIICRASVNIYSYLAWYQQKQGKSPQLLVYNAKILAEGVPSRFSGSGSGTQFSLKINSLQPEDFGSYYCQHHYGTFTFGSGTKLEIK
For B1, in assay [3], the percent bound (immunoreactivity) was determined as 80%.
